The values that follow come from patent publication US20240287080A1 (IDEAYA Biosciences Inc., priority 2021, published 2024).

A word on the IC50: it is the concentration that gives 50% inhibition.

T1 sequence (O75417 1-899): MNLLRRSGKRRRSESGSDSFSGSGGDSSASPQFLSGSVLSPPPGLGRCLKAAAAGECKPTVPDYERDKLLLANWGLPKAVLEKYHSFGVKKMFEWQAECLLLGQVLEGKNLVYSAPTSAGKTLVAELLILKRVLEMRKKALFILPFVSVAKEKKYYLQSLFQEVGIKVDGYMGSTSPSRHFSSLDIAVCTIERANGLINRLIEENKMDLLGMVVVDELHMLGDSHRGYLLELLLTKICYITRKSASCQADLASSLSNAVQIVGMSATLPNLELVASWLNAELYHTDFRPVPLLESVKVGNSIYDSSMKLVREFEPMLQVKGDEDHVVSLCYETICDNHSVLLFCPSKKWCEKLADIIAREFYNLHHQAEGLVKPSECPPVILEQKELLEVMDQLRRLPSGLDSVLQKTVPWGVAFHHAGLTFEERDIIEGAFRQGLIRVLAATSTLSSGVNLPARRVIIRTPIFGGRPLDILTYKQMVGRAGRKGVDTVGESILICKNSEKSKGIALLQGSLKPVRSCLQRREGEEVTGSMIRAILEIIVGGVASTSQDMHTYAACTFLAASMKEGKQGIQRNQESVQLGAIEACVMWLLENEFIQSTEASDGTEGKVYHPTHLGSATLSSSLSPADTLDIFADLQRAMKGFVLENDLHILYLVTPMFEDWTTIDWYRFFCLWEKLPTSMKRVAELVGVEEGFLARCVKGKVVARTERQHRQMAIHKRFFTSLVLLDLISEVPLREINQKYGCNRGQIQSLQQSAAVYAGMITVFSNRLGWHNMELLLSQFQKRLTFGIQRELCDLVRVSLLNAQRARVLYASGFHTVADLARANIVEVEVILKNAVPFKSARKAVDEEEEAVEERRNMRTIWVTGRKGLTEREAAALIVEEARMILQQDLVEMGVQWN

One assay has as its target T1, Pol theta (1-899) (Homo sapiens, UniProt O75417).
T1 construct: Pol theta (1-899) (5 nM) in assay buffer
As to the kind of experiment: Pol theta ATPase activity, NADH oxidation-coupled enzymatic assay (ATPase NADH coupling: Standard Screening: hPolQ). The settings on record: Pol theta (1-899) 5 nM, NADH oxidation-coupled ATPase assay; compounds of Table 3. It counts as biochemical. A digest of the protocol:
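Rates of ATP hydrolysis taken from 60-min A340 traces of NADH oxidation via PK/LDH coupling, then fit four-parameter for IC50, Hill slope and max inhibition. Enzyme (5 nM, 1-899) and compounds preincubated 15 min before ATP 100 μM and 50-thymine ssDNA 300 nM (stock, equal volume added).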
Compound `COc1cnc(Cl)cc1-c1cc(C)ncc1C(=O)Nc1nnc(O[C@@H]2CCCN([C@@H]3CCOC3)C2)s1` [Example 264, 2′-chloro-5′-methoxy-6-methyl-N-(5-(((R)-1-((R)-tetrahydrofuran-3-yl)piperidin-3-yl)oxy)-1,3,4-thiadiazol-2-yl)-[4,4′-bipyridine]-3-carboxamide] returned an IC50 of at most 200 nM.
On the same count and under the same terms, for `COc1nnc(NC(=O)c2cnc(C)cc2-c2cccc3[nH]ncc23)s1` [Example 335, 4-(1H-indazol-4-yl)-N-(5-methoxy-1,3,4-thiadiazol-2-yl)-6-methylnicotinamide] the value was 500 to 1000 nM; for `COc1nnc(NC(=O)c2ccc(C)cc2-c2cc(Cl)ncc2OC)s1` [Example 279, 2-(2-chloro-5-methoxypyridin-4-yl)-N-(5-methoxy-1,3,4-thiadiazol-2-yl)-4-methylbenzamide], at most 200 nM; for `COc1nnc(NC(=O)c2ccc([N+](=O)[O-])cc2-c2cc(Cl)ncc2OC)s1` [Example 300, 2-(2-chloro-5-methoxypyridin-4-yl)-N-(5-methoxy-1,3,4-thiadiazol-2-yl)-4-nitrobenzamide], at most 200 nM.
Still for that read-out and setting: the value for `COc1nnc(NC(=O)c2cnc(C)cc2-c2cnc(N3CCOCC3)nc2)s1` [Example 427, N-(5-methoxy-1,3,4-thiadiazol-2-yl)-6-methyl-4-[2-(morpholin-4-yl)pyrimidin-5-yl]pyridine-3-carboxamide] was 1000 to 10000 nM; that for `COc1cnc(Br)cc1-c1cc(C)ncc1C(=O)Nc1nnc(O[C@@H]2CCC[C@H](O)C2)s1` (single isomer, unassigned) [Example 239] was at most 200 nM; that for `COc1cnc(C)cc1-c1cc(C)ncc1C(=O)Nc1nnc(OC(C)COCC(F)(F)F)s1` (centres unmarked) [Example 241, 5′-methoxy-2′,6-dimethyl-N-(5-((1-(2,2,2-trifluoroethoxy)propan-2-yl)oxy)-1,3,4-thiadiazol-2-yl)-[4,4′-bipyridine]-3-carboxamide] was at most 200 nM.
On the same count and under the same terms, the value for `COc1nnc(NC(=O)c2cnc(C)cc2-c2ccc(OC(C)C)c(C#N)c2)s1` [Example 473, 4-[3-cyano-4-(propan-2-yloxy)phenyl]-N-(5-methoxy-1,3,4-thiadiazol-2-yl)-6-methylpyridine-3-carboxamide] was at most 200 nM.
Consider `COc1nnc(NC(=O)c2cnc(C)cc2-c2ccc(C#N)nc2C)s1` [Example 434, 6-cyano-N-(5-methoxy-1,3,4-thiadiazol-2-yl)-2,6′-dimethyl-[3,4′-bipyridine]-3′-carboxamide], for which the half-maximal inhibitory concentration (IC50) lay in the range of 1000 to 10000 nM.
Consider `COc1nnc(NC(=O)c2cc(CC#N)ncc2-c2cc(Cl)ncc2OC)s1` [Example 302, 2′-chloro-6-(cyanomethyl)-5′-methoxy-N-(5-methoxy-1,3,4-thiadiazol-2-yl)-[3,4′-bipyridine]-4-carboxamide], for which the IC50 was at most 200 nM.
Still for that read-out and setting: the value for `COc1nnc(NC(=O)c2cnc(C)cc2-c2cncc(F)c2)s1` [Example 471, 5-fluoro-N-(5-methoxy-1,3,4-thiadiazol-2-yl)-6′-methyl-[3,4′-bipyridine]-3′-carboxamide] was 1000 to 10000 nM; that for `COc1nnc(NC(=O)c2cnc(C)cc2-c2coc3ccccc23)s1` [Example 436, 4-(1-benzofuran-3-yl)-N-(5-methoxy-1,3,4-thiadiazol-2-yl)-6-methylpyridine-3-carboxamide] was 1000 to 10000 nM.
For `COc1nnc(NC(=O)c2cnc(C)cc2-c2cc(Cl)c([S+](C)[O-])cc2OC)s1` (single isomer, unassigned) [Example 298], the IC50 is 500 to 1000 nM.
Same read-out and setting: the value for `COc1cnc(C)c(F)c1-c1cc(C)ncc1C(=O)Nc1nnc(OCCN(C)CC(F)(F)F)s1` [Example 258, 3′-fluoro-5′-methoxy-2′,6-dimethyl-N-(5-(2-(methyl(2,2,2-trifluoroethyl)amino)ethoxy)-1,3,4-thiadiazol-2-yl)-[4,4′-bipyridine]-3-carboxamide] was at most 200 nM.
As for `COc1nnc(NC(=O)c2cnc(C)cc2-c2cccc(CN(C)C)c2)s1` [Example 410, 4-(3-((dimethylamino)methyl)phenyl)-N-(5-methoxy-1,3,4-thiadiazol-2-yl)-6 methylnicotinamide], the IC50 was in the range of 1000 to 10000 nM.
In turn, `COc1nnc(NC(=O)c2cnc(C)cc2-c2ccn(C)c(=O)c2)s1` [Example 351, N-(5-methoxy-1,3,4-thiadiazol-2-yl)-1′,6-dimethyl-2′-oxo-1′,2′-dihydro-[4,4′-bipyridine]-3-carboxamide] registered an IC50 of 1000 to 10000 nM.
On the same count and under the same terms, the value for `COc1nnc(NC(=O)c2cnc(C)cc2-c2cccc(N(C)C)c2)s1` [Example 412, 4-[3-(dimethylamino)phenyl]-N-(5-methoxy-1,3,4-thiadiazol-2-yl)-6-methylpyridine-3-carboxamide] was 1000 to 10000 nM.

The assay is the same for the next values; noted with them: Table 4; Pol theta (1-899) 5 nM, ATP, dT50 ssDNA.
The compound `COc1nnc(NC(=O)c2cnc(C)cc2-c2c(F)cccc2OC(F)F)s1` [Example 32, 4-(2-(difluoromethoxy)-6-fluorophenyl)-N-(5-methoxy-1,3,4-thiadiazol-2-yl)-6-methylnicotinamide] gave an IC50 of at most 200 nM.
The same measure, in the same setting: the value for `COc1cnc(Cl)cc1-c1cc(C)ncc1C(=O)Nc1nnc(OC(C)C)s1` [Example 6, 2′-chloro-N-(5-isopropoxy-1,3,4-thiadiazol-2-yl)-5′-methoxy-6-methyl-(4,4′-bipyridine)-3-carboxamide] was at most 200 nM; that for `COc1cnc(Cl)cc1-c1cc(C)ncc1C(=O)Nc1nnc(O[C@H]2C[C@@H](O)C2)s1` [Example 15, 2′-chloro-N-(5-((1s,3s)-3-hydroxycyclobutoxy)-1,3,4-thiadiazol-2-yl)-5′-methoxy-6-methyl-(4,4′-bipyridine)-3-carboxamide] was at most 200 nM.
On to `COc1nnc(NC(=O)c2cnc(C)cc2-c2cc(Cl)ccc2CO)s1` [Example 66, 4-(5-chloro-2-(hydroxymethyl)phenyl)-N-(5-methoxy-1,3,4-thiadiazol-2-yl)-6-methylnicotinamide], for which the IC50 lay within 200 to 500 nM.
Still for that read-out and setting: the value for `COc1cnc(Cl)cc1-c1cc(C)ncc1C(=O)Nc1nnc(OCC(C)(C)C#N)s1` [Example 10, 2′-chloro-N-(5-(2-cyano-2-methylpropoxy)-1,3,4-thiadiazol-2-yl)-5′-methoxy-6-methyl-(4,4′-bipyridine)-3-carboxamide] was at most 200 nM.
Still for that read-out and setting: the value for `COc1cnc(Cl)cc1-c1cc(C)ncc1C(=O)Nc1nnc(OC2COC2)s1` [Example 13, 2′-chloro-5′-methoxy-6-methyl-N-(5-(oxetan-3-yloxy)-1,3,4-thiadiazol-2-yl)-(4,4′-bipyridine)-3-carboxamide] was at most 200 nM.
On the same count and under the same terms, for `CCOc1ccc(Cl)cc1-c1cc(C)ncc1C(=O)Nc1nnc(OC)s1` [Example 53, 4-(5-chloro-2-ethoxyphenyl)-N-(5-methoxy-1,3,4-thiadiazol-2-yl)-6-methylnicotinamide] the value was 200 to 500 nM.

The same assay, now with this note: Table 5; Pol theta (1-899) 5 nM, ATP, dT50 ssDNA.
Turning to `COc1cnc(Cl)cc1-c1cc(C)ncc1C(=O)Nc1nnc(O[C@H]2CC[C@@H]2O)s1` (single isomer, unassigned) [Example 119], the IC50 is at most 200 nM.
On the same count and under the same terms, the value for `COc1cnc(Cl)cc1-c1cc(C)ncc1C(=O)Nc1nnc(O[C@@H]2CCC[C@](C)(O)C2)s1` (single isomer, unassigned) [Example 180] was 200 to 500 nM; that for `COc1nnc(NC(=O)c2cnc(C3CCCC3)cc2-c2cc(Cl)ncc2OC)s1` [Example 143, 2′-chloro-6-cyclopentyl-5′-methoxy-N-(5-methoxy-1,3,4-thiadiazol-2-yl)-(4,4′-bipyridine)-3-carboxamide] was 200 to 500 nM.
On the same count and under the same terms, the value for `COc1cnc(Cl)cc1-c1cc(C)ncc1C(=O)Nc1nnc(O[C@H]2CCC[C@H](O)C2)s1` (single isomer, unassigned) [Example 161] was at most 200 nM; that for `COc1nnc(NC(=O)c2cn3c(C)ncc3cc2-c2cc(Cl)ncc2OC)s1` [Example 103, 7-(2-chloro-5-methoxypyridin-4-yl)-N-(5-methoxy-1,3,4-thiadiazol-2-yl)-3-methylimidazo(1,5-a)pyridine-6-carboxamide] was at most 200 nM.
The same measure, in the same setting: for `COc1cnc(C)c(F)c1-c1cc(C)ncc1C(=O)Nc1nnc(O[C@@H]2COC3(CC3)C2)s1` (single isomer, unassigned) [Example 207] the value was at most 200 nM; for `COc1cnc(Cl)cc1-c1cc(C)ncc1C(=O)Nc1nnc(O[C@H]2CCC[C@@](C)(O)C2)s1` (single isomer, unassigned) [Example 179], at most 200 nM; for `COc1cnc(Cl)cc1-c1cc(C)ncc1C(=O)Nc1nnc(O[C@@H]2CO[C@@H](C)C2)s1` (single isomer, unassigned) [Example 190], at most 200 nM.
As to `COc1cnc(Cl)cc1-c1cc(C)ncc1C(=O)Nc1nnc(O[C@H]2CCC[C@](C)(O)C2)s1` (racemic) [Example 178, rac-2′-chloro-N-(5-(((1R,3R)-3-hydroxy-3-methylcyclohexyl)oxy)-1,3,4-thiadiazol-2-yl)-5′-methoxy-6-methyl-(4,4′-bipyridine)-3-carboxamide], the IC50 was at most 200 nM.
On the same count and under the same terms, for `Cc1cc(-c2cc(Br)ncc2OC(F)F)c(C(=O)Nc2nnc(O[C@@H]3CCOC3)s2)cn1` [Example 195, (R)-2′-bromo-5′-(difluoromethoxy)-6-methyl-N-(5-((tetrahydrofuran-3-yl)oxy)-1,3,4-thiadiazol-2-yl)-(4,4′-bipyridine)-3-carboxamide] the value was at most 200 nM.
`COc1cnc(Br)cc1-c1cc(C)ncc1C(=O)Nc1nnc(O[C@H]2CC[C@@](C)(O)CC2)s1` (single isomer, unassigned) [Example 222, 2′-bromo-N-(5-(((1s,4s)-4-hydroxy-4-methylcyclohexyl)oxy)-1,3,4-thiadiazol-2-yl)-5′-methoxy-6-methyl-(4,4′-bipyridine)-3-carboxamide] showed an IC50 of at most 200 nM.
